Source: patent US20020187514A1 (priority 1999, published 2002)

Key:
Adenosine, A1 = Adenosine, A1 (UniProt P25099); test: Adenosine, A1; [3H]CPX; format: binding; details: 10^−5 M
Adenosine, A2A = target: T1, Adenosine, A2A (Homo sapiens, UniProt P29274); test: biochemical; format: binding; details: read-out: Pass 1 (10^−5 M) % Inhibition
T1 construct: expressed in transfected cells

Adrenergic, Alpha 1A = Adrenergic, Alpha 1A (UniProt P43140); test: Adrenergic, Alpha 1A; [3H]-7-MeOxy-Prazosin; format: binding
Adrenergic, Alpha 2B = Adrenergic, Alpha 2B (UniProt P19328); format: binding
Adrenergic, Beta 1 = target: T2, Adrenergic, Beta 1 (Homo sapiens, UniProt P08588); test: Adrenergic, Beta 1 (Human Recombinant); [125I]Iodocyanopindolol; format: binding; details: read-out: Pass 1 (10^−5 M) % Inhibition
T2 construct: expressed in transfected cells

Clozapine = format: binding
Dopamine, D3 = target: T3, Dopamine, D3 (Rattus norvegicus, UniProt P19020); test: Dopamine, D3 (Rat Recombinant); [3H]7-OH-DPAT; format: binding; details: read-out: Pass 1 (10^−5 M) % Inhibition
T3 construct: expressed in transfected cells
T3 sequence (P19020 whole entry): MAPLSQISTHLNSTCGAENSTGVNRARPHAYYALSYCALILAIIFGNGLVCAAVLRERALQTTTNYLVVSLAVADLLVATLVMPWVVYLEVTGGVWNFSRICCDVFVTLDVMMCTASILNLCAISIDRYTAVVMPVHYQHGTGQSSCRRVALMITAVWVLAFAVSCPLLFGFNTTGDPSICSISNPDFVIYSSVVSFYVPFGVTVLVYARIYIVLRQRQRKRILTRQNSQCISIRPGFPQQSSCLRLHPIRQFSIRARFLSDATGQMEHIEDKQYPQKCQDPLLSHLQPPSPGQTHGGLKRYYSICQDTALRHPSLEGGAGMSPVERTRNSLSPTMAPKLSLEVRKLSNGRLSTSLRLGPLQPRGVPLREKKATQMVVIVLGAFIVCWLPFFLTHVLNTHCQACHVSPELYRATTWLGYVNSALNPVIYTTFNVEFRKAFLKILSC

Glutamate, AMPA Site = test: Glutamate, AMPA Site; [3H]AMPA; format: binding; details: 10^−5 M
[1] = system: Glutamate, NMDA Agonist Site; test: Glutamate, NMDA Agonist Site; [3H]CGP 39653; format: binding; details: 10^−5 M
[2] = system: Glutamate, NMDA, Glycine (Stry-insens Site); format: binding; details: 10^−5 M
Histamine, H1 = target: T4, Histamine, H1 (Bos taurus, UniProt P30546); test: Histamine, H1; [3H]Pyrilamine; format: binding; details: read-out: Pass 1 (10^−5 M) % Inhibition
T4 construct: no other source notation after assay name denotes animal cell or animal tissue source; from tissue; host or cells: animal cell or animal tissue, not specified

Melatonin = test: Melatonin; [125I]-2-Iodomelatonin; format: binding; details: 10^−5 M
Muscarinic, M4 = target: T5, Muscarinic, M4 (Homo sapiens, UniProt P08173); test: biochemical; format: binding; details: read-out: Pass 1 (10^−5 M) % Inhibition
T5 construct: expressed in transfected cells
T5 sequence (P08173 whole entry): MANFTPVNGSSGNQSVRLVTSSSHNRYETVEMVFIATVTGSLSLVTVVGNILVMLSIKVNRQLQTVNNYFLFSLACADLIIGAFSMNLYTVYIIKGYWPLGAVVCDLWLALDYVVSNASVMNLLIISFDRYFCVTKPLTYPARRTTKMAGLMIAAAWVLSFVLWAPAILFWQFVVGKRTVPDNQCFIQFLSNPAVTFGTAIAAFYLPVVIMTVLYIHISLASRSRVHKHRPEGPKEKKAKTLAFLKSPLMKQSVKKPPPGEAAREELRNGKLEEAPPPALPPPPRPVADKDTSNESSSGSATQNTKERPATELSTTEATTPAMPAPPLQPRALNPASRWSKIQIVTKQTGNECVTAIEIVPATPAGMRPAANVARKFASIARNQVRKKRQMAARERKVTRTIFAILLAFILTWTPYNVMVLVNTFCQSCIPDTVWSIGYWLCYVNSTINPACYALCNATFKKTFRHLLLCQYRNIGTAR

Serotonin, 5HT1A [3] = format: binding
Serotonin, 5HT1A [4] = target: Serotonin, 5HT1A (Homo sapiens, UniProt P08908); test: biochemical; format: binding; details: read-out: Pass 1 (10^−5 M) % Inhibition
Serotonin, 5HT1D = Serotonin, 5HT1D (Homo sapiens, UniProt P28221); test: biochemical; format: binding; details: read-out: Pass 1 (10^−5 M) % Inhibition
Sequence of Serotonin, 5HT1D (P28221 whole entry): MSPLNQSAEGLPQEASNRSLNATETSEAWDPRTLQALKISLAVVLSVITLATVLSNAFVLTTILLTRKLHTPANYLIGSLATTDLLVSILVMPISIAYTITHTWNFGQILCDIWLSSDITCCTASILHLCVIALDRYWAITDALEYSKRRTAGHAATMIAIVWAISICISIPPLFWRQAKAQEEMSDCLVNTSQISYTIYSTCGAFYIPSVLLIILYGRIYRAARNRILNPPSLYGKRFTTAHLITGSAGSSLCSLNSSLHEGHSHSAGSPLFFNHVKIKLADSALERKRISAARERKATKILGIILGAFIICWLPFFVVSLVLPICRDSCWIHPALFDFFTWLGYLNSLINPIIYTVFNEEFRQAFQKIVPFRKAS

Serotonin, 5HT5A = target: T6, Serotonin, 5HT5A (Homo sapiens, UniProt P47898); test: biochemical; format: binding; details: read-out: Pass 1 (10^−5 M) % Inhibition
T6 construct: expressed in transfected cells
T6 sequence (P47898 whole entry): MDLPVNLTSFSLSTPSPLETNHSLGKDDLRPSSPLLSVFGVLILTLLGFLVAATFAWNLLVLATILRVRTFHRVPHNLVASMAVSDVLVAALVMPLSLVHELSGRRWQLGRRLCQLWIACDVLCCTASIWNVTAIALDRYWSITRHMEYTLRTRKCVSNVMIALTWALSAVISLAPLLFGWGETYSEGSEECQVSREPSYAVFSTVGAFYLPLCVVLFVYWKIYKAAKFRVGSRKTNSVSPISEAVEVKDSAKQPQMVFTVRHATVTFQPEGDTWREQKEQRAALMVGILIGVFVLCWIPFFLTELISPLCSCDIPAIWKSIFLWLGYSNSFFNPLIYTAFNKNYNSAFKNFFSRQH

Sigma 1 = target: T7, Sigma 1 (Cavia porcellus, UniProt Q60492); test: Sigma 1; [3H]-(+)-Pentazocine; format: binding, guinea pig
T7 construct: Fresh guinea pig whole brain was obtained following decapitation; from tissue; host or cells: guinea pig whole brain membranes
T7 sequence (Q60492 whole entry): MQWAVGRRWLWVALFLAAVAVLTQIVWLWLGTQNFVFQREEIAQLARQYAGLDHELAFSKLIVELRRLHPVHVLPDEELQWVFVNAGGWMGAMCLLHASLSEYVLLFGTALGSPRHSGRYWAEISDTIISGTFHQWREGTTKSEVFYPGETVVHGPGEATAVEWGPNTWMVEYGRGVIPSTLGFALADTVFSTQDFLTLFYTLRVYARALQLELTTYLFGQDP

Complement C5a = Complement C5a (Homo sapiens, UniProt P21730); test: Complement C5a (Human); [125I]BH-rC5a; format: binding; details: read-out: Pass 1 (10^−5 M) % Inhibition
Sequence of Complement C5a (P21730 whole entry): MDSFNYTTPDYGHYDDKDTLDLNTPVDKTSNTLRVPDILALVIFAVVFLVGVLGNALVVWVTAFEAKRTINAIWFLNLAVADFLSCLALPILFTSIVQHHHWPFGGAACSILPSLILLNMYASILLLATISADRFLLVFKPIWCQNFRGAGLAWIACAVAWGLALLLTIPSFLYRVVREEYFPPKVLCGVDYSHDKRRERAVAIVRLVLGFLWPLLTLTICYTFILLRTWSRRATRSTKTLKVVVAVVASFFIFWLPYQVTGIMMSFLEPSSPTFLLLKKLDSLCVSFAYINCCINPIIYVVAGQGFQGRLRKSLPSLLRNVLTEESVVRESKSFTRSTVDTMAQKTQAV

Estrogen = test: Estrogen; [125I]3,17B-Estradiol, 16a; format: binding; details: 10^−5 M
Progesterone = Progesterone (Bos taurus, UniProt F1N712); test: Progesterone; [3H]Promegestone; format: binding; details: read-out: Pass 1 (10^−5 M) % Inhibition
Testosterone (cytosolic) = Testosterone (cytosolic) (UniProt P15207); format: binding
Sequence of Testosterone (cytosolic) (P15207 whole entry S389L): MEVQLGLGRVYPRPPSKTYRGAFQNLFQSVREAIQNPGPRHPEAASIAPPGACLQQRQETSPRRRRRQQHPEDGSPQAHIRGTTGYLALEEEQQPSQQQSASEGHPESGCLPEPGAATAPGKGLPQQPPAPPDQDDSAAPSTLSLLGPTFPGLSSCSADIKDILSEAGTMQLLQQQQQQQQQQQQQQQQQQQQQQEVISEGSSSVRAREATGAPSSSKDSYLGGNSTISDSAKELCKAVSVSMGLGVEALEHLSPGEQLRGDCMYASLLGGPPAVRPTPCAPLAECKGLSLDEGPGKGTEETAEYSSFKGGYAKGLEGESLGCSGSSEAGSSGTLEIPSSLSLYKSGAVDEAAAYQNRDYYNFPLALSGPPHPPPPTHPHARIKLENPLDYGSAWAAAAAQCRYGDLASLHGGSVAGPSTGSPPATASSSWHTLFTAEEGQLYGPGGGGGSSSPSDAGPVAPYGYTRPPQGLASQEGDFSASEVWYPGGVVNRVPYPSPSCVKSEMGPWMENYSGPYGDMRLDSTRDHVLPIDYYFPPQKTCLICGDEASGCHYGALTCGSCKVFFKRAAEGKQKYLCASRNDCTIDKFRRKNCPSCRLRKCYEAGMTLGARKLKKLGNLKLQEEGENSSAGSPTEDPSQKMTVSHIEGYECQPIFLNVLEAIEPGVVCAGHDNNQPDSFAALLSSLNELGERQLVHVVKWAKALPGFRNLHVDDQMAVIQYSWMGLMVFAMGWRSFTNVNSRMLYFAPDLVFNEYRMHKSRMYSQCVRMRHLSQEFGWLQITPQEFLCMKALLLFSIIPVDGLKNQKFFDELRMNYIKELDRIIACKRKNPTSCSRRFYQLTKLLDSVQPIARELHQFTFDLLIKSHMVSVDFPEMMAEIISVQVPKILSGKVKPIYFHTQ

[5] = target: Calcium Channel, Type L (Benzothiazepine Site) (Rattus norvegicus, UniProt P22002); test: Calcium Channel, Type L (Benzothiazepine Site); [3H]Diltiazem, cis(+); format: binding; details: read-out: Pass 1 (10^−5 M) % Inhibition
[6] = target: Calcium Channel, Type L (Dihydropyridine Site) (Rattus norvegicus, UniProt P22002); test: Calcium Channel, Type L (Dihydropyridine Site); [3H]Nitrendipine; format: binding; details: read-out: Pass 1 (10^−5 M) % Inhibition
[7] = system: GABA, Chloride, TBOB Site; format: binding
[8] = system: Ahenylate Cyclase, Forskolin; test: Ahenylate Cyclase, Forskolin; [3H]Forskolin; format: binding; details: 10^−5 M
Leukotrine B4, LTB4 = test: Leukotrine B4, LTB4; [3H]LTB4; format: binding; details: 10^−5 M
[9] = system: Atrial Natriuretic Peptide, ANP A; test: Atrial Natriuretic Peptide, ANP A; [125I]ANP (Rat); format: binding
[10] = target: T8, Platelet Activating Factor, PAF (Oryctolagus cuniculus, UniProt G1TEI7); test: Platelet Activating Factor, PAF; [3H]Hexadecyl, PAF; format: binding; details: read-out: Pass 1 (10^−5 M) % Inhibition
T8 construct: no other source notation after assay name denotes animal cell or animal tissue source; from tissue
T8 sequence (G1TEI7 entry or part of it): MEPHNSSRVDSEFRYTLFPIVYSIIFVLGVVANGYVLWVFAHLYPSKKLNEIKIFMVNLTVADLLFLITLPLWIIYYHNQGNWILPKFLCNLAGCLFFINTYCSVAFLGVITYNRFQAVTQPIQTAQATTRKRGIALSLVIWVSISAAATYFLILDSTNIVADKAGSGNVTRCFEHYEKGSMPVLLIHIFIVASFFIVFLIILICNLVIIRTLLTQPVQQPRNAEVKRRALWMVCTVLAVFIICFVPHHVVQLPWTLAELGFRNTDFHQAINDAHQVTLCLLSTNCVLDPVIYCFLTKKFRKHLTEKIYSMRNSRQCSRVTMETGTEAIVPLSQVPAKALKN

[11] = system: Thyrotropin Releasing Hormone, TRH; test: Thyrotropin Releasing Hormone, TRH; [3H]-(3MeHis2)TRH; format: binding; details: 10^−5 M
Angiotensin II, ATI = Angiotensin II, ATI (Homo sapiens, UniProt P30556); test: Angiotensin II, ATI (Human); [125I]-(Sar1-Ile8) Angiotensin; format: binding; details: read-out: Pass 1 (10^−5 M) % Inhibition
Bradykinin, BK2 = target: T9, Bradykinin, BK2 (Homo sapiens, UniProt P30411); test: Bradykinin, BK2 (Human recombinant); [3H]-Bradykinin; format: binding; details: read-out: Pass 1 (10^−5 M) % Inhibition
T9 construct: expressed in transfected cells

Neurokinin, NK3 (NKB) = format: binding; details: 10^−5 M
Vasopressin, V1A = Vasopressin, V1A (Homo sapiens, UniProt P37288); test: Vasopressin, V1A (Human); [125I]-Via Antagonist; format: binding; details: read-out: Pass 1 (10^−5 M) % Inhibition
Sequence of Vasopressin, V1A (P37288 whole entry): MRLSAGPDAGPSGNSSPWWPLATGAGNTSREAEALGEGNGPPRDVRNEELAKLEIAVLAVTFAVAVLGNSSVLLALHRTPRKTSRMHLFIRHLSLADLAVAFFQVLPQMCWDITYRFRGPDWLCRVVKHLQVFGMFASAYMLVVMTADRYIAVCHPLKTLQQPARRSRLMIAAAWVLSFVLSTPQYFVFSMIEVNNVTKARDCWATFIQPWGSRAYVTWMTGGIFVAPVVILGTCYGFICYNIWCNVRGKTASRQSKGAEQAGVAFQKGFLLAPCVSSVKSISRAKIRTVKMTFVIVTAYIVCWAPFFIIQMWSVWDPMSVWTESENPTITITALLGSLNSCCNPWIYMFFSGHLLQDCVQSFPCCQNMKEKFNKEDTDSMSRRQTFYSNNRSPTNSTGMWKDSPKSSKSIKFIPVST

[12] = system: Glutamic Acid Decarboxylase; test: Glutamic Acid Decarboxylase; substrate [14C]Glutamic acid; format: biochemical; details: 10^−5 M
[13] = target: Protein Phosphatase, PP2A (Homo sapiens, UniProt P67775); test: Protein Phosphatase, PP2A (Human); substrate DiFMUP; format: biochemical; details: read-out: Pass 1 (10^−5 M) % Inhibition
Sequence of Protein Phosphatase, PP2A (P67775 whole entry): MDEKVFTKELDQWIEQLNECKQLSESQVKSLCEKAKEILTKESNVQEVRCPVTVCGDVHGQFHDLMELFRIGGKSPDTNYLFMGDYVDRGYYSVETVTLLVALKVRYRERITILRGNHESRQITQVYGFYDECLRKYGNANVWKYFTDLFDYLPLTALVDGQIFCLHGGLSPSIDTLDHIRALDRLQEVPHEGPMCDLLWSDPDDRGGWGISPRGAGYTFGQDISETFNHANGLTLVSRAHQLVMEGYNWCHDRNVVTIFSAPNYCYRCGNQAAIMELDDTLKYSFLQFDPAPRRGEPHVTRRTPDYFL

[14] = system: Protein Tyrosine Phosphatase, PTP-B; test: Protein Tyrosine Phosphatase, PTP-B (Human); substrate pNPP; format: biochemical; details: 10^−5 M; footnote: not confirmed in QA/QC follow-up
[15] = target: T10, Protein Tyrosine Phosphatase, PTP-LAR-D1 (Homo sapiens, UniProt P10586); test: Protein Tyrosine Phosphatase, PTP-LAR-D1 (Human); substrate pNPP; format: biochemical; details: read-out: Pass 1 (10^−5 M) % Inhibition
T10 construct: PTP-LAR-D1
T10 sequence (P10586 1352-1607): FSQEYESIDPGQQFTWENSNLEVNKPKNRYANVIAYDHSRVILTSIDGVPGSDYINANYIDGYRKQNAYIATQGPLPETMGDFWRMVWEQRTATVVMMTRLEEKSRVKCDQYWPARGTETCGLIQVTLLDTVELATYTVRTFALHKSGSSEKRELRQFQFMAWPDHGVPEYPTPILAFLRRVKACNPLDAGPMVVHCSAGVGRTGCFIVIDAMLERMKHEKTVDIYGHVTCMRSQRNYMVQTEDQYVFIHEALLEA

[16] = target: GABA A, BDZ, alpha 1, central (Bos taurus, UniProt P08219+P22300); test: biochemical; details: read-out: Pass 1 (10^−5 M) % Inhibition
Serotonin Transporter = Serotonin Transporter (Homo sapiens, UniProt P31645); test: biochemical; details: read-out: Pass 1 (10^−5 M) % Inhibition

T1 sequence (P29274 whole entry): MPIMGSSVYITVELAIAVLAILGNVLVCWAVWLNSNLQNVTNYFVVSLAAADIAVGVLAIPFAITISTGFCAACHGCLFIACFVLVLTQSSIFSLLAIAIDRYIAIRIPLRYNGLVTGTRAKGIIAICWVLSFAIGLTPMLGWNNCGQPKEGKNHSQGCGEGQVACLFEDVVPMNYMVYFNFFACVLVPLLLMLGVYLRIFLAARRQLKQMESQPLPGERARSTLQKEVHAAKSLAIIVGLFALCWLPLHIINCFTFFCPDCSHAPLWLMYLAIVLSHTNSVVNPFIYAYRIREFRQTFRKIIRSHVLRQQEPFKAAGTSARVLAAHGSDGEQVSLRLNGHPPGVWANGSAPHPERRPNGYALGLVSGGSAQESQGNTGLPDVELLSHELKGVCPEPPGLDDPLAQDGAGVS

SMILES: COC(=O)[C@H]1[C@@H](OC(=O)c2ccccc2)C[C@@H]2CC[C@H]1N2C [cocaine]
- Pass 1 (10^−5 M) % Inhibition (Adenosine, A1): 2.29%
- inhibition at 10 µM (Adenosine, A2A): 25.9%
- Pass 1 (10^−5 M) % Inhibition (Adrenergic, Alpha 1A): −1.18%
- Pass 1 (10^−5 M) % Inhibition (Adrenergic, Alpha 2B): −3.82%
- inhibition at 10 µM (Adrenergic, Beta 1): 11.7%
- Pass 1 (10^−5 M) % Inhibition (Clozapine): 1.37%
- inhibition at 10 µM (Dopamine, D3): 30.2%
- Pass 1 (10^−5 M) % Inhibition (Glutamate, AMPA Site): −9.30%
- Pass 1 (10^−5 M) % Inhibition [1]: 38.66%
- Pass 1 (10^−5 M) % Inhibition [2]: −1.56%
- inhibition at 10 µM (Histamine, H1): -19.7%
- Pass 1 (10^−5 M) % Inhibition (Melatonin): 16.13%
- inhibition at 10 µM (Muscarinic, M4): 0.42%
- Pass 1 (10^−5 M) % Inhibition (Serotonin, 5HT1A [3]): 0.52%
- inhibition at 10 µM (Serotonin, 5HT1A [4]): 7.63%
- inhibition at 10 µM (Serotonin, 5HT1D): 3.12%
- inhibition at 10 µM (Serotonin, 5HT5A): 12%
- Ki (Sigma 1): 11.6 µM
- inhibition at 10 µM (Sigma 1; read-out: Pass 1 (10^−5 M) % Inhibition): 64.7%
- inhibition at 10 µM (Complement C5a): 15.2%
- Pass 1 (10^−5 M) % Inhibition (Estrogen): 12.80%
- inhibition at 10 µM (Progesterone): -10.9%
- Pass 1 (10^−5 M) % Inhibition (Testosterone (cytosolic)): −7.60%
- inhibition at 10 µM [5]: 20.3%
- inhibition at 10 µM [6]: 10.2%
- Pass 1 (10^−5 M) % Inhibition [7]: 8.40%
- Pass 1 (10^−5 M) % Inhibition [8]: 6.27%
- Pass 1 (10^−5 M) % Inhibition (Leukotrine B4, LTB4): 17.06%
- Pass 1 (10^−5 M) % Inhibition [9]: 11.36%
- inhibition at 10 µM [10]: 12.6%
- Pass 1 (10^−5 M) % Inhibition [11]: −11.95%
- inhibition at 10 µM (Angiotensin II, ATI): 21.2%
- inhibition at 10 µM (Bradykinin, BK2): 4.48%
- Pass 1 (10^−5 M) % Inhibition (Neurokinin, NK3 (NKB)): −15.24%
- inhibition at 10 µM (Vasopressin, V1A): -4.37%
- Pass 1 (10^−5 M) % Inhibition [12]: −1.39%
- inhibition at 10 µM [13]: 15.3%
- Pass 1 (10^−5 M) % Inhibition [14]: 65.03%
- inhibition at 10 µM [15]: 24.4%
- inhibition at 10 µM [16]: 9.58%
- inhibition at 10 µM (Serotonin Transporter): 97.5%
